Here are results for 5 compounds from paper PMC6761534 (Antimicrobial Agents and Chemotherapy, 2019).

In brackets after ≈: the same amount, converted by molar mass.

In experiment [1] the test system is M. bovis BCG. Nature of the experiment: microbe, parasite or virus in culture. In kind it is cell-based. The settings on record: Mycobacterium tuberculosis variant bovis BCG, 24 h, read-out: IC50 ATP depletion (intrabacterial ATP).
Experiment [2] concerns M. bovis BCG. In words: microbe, parasite or virus in culture. In kind it is cell-based. The settings on record: Mycobacterium tuberculosis variant bovis BCG, 120 h, read-out: Growth inhibition MIC90.
Another experiment relates to M. tuberculosis H37Rv. Nature of the experiment: microbe, parasite or virus in culture. The settings on record: Mycobacterium tuberculosis, 168 h, read-out: M. tuberculosis H37Rv MIC90. In kind it is cell-based.
In the next experiment the test system is M. smegmatis WT. Nature of the experiment: microbe, parasite or virus in culture. The settings on record: Mycolicibacterium smegmatis; for MIC50: 24 h, read-out: MIC50 ± SD, M. smegmatis WT. In kind it is cell-based, Mycobacterium smegmatis.
In experiment [3] the test system is mycobacterial F-ATP synthase (ATPase activity). Nature of the experiment: Continuous ATP hydrolysis assay with M. smegmatis inverted membrane vesicles. In kind it is biochemical, Mycobacterium smegmatis.
Experiment [4] concerns the target mycobacterial F-ATP synthase (Mycobacterium bovis, UniProt A1KI93+A1KI99). In words: biochemical. More on the design: species or system Mycobacterium bovis BCG.
Experiment [5] has as its system M. smegmatis ε subunit overexpresser strain. In words: microbe, parasite or virus in culture. The experiment is classed as cell-based. The settings on record: Mycolicibacterium smegmatis, 24 h, 1 day, read-out: MIC50 ± SD, ε overexpresser.
Experiment [6] concerns the target M. smegmatis F-ATP synthase (Mycolicibacterium smegmatis, UniProt A0R1Z9+A0R205). Nature of the experiment: biochemical. More on the design: species or system Mycobacterium smegmatis.

Chain of mycobacterial F-ATP synthase (A1KI93 whole entry, looked up): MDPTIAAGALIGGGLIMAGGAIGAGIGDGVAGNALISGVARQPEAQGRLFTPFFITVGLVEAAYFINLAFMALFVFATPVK
Chain of mycobacterial F-ATP synthase (A1KI99 whole entry, looked up): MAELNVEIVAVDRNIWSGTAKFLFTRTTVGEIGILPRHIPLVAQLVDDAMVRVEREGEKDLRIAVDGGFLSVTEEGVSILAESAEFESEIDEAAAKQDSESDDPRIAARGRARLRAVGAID

Usually IC50 stands for the concentration at which inhibition is half-maximal. Regarding `COc1nc2ccc(Br)cc2cc1[C@@H](c1ccccc1)[C@@](O)(CCN(C)C)c1cccc2ccccc12` [BDQ, Bedaquiline, reference compound], the IC50 turned out to be 9.16 nM in the experiment with M. bovis BCG [1], 5.3 nM in experiment [4] and 0.2 nM in experiment [6]. Besides, the MIC90 in the experiment with M. bovis BCG [2] was 70 nM (≈ 38.9 ng/mL); in the experiment with M. tuberculosis H37Rv, 400 nM (≈ 222 ng/mL); in the experiment with M. smegmatis WT it was 100 nM (≈ 55.6 ng/mL). For the same compound, the figures for the MIC50 (in the experiment with M. smegmatis WT; in experiment [5]) were 12 ± 0.1 nM (≈ 6.67 ng/mL) and 24 ± 0.1 nM (≈ 13.3 ng/mL), respectively. Further, the “Inhibition of ATPase activity” value in experiment [3] (100 μM) is given as 78%. Further, the “Inhibition of ATPase activity (in words)” value in experiment [3] (250 μM) was “almost completely”.
As to `COc1cc([C@](O)(CCN(C)C)[C@@H](c2cc3cc(Br)ccc3nc2OC)c2cc(OC)nc(OC)c2OC)cc(OC)n1` [TBAJ-876], the IC50 in the experiment on M. bovis BCG [1] stood at 0.89 nM; in experiment [4] it was 0.031 nM; in experiment [6], 0.0059 nM. Besides, the MIC90 with M. bovis BCG [2] stood at 7.2 nM (≈ 4.73 ng/mL); in the experiment on M. tuberculosis H37Rv it was 125 nM (≈ 82.2 ng/mL); against M. smegmatis WT, 6.3 nM (≈ 4.14 ng/mL). Moreover, the MIC50 in the experiment with M. smegmatis WT was 1.1 ± 0.05 nM (≈ 0.723 ng/mL); in experiment [5], 2.75 ± 0.02 nM (≈ 1.81 ng/mL). Moreover, the “Inhibition of ATPase activity (in words)” value in experiment [3] (BDQ-like) is on record as “strong”.
Take `COc1cc([C@](O)(CCN(C)C)[C@@H](c2cc3cc(Br)ccc3nc2OC)c2ccnc(OC)c2OC)cc(OC)n1` [compound 5307]: the IC50 came out at 0.48 nM with M. bovis BCG [1], 0.091 nM in experiment [4] and 0.0087 nM in experiment [6]. In addition, the MIC90 is 3.6 nM (≈ 2.26 ng/mL) with M. bovis BCG [2], 70 nM (≈ 43.9 ng/mL) in the experiment with M. tuberculosis H37Rv and 3.5 nM (≈ 2.2 ng/mL) against M. smegmatis WT. Moreover, the MIC50 came out at 0.8 ± 0.05 nM (≈ 0.502 ng/mL) in the experiment on M. smegmatis WT and 8 ± 0.1 nM (≈ 5.02 ng/mL) in experiment [5]. In experiment [3] (BDQ-like), the “Inhibition of ATPase activity (in words)” value was “strong”.
In the case of `COc1cc([C@](O)(CCN(C)C)[C@@H](c2cc3cc(Br)ccc3nc2OC)c2cccc3c2OCCO3)cc(OC)n1` [compound 5316], the values for the IC50 (with M. bovis BCG [1]; in experiment [4]; in experiment [6]) were 0.34 nM, 0.047 nM and 0.011 nM, respectively. For the same compound, the MIC90 came out at 3.6 nM (≈ 2.25 ng/mL) with M. bovis BCG [2], 70 nM (≈ 43.7 ng/mL) in the experiment on M. tuberculosis H37Rv and 4.6 nM (≈ 2.87 ng/mL) against M. smegmatis WT. The values for the MIC50 (in the experiment on M. smegmatis WT; in experiment [5]) were 0.6 ± 0.03 nM (≈ 0.375 ng/mL) and 1.68 ± 0.02 nM (≈ 1.05 ng/mL), respectively. Besides, the “Inhibition of ATPase activity (in words)” value in experiment [3] (BDQ-like) is on record as “strong”.
For the compound `COc1cc([C@](O)(CCN(C)C)[C@H](c2cc(OC(C)C)cnc2OC)c2cc3cc(Br)ccc3nc2OC)cc(OC)n1` [compound 5366], the IC50 with M. bovis BCG [1] came to 0.32 nM; in experiment [4] it was 0.2 nM; in experiment [6], 0.0164 nM. Moreover, the MIC90 in the experiment with M. bovis BCG [2] amounted to 3.4 nM (≈ 2.23 ng/mL); in the experiment on M. tuberculosis H37Rv it was 30 nM (≈ 19.7 ng/mL); against M. smegmatis WT, 5.5 nM (≈ 3.61 ng/mL). Further, the MIC50 came to 2.1 ± 0.06 nM (≈ 1.38 ng/mL) with M. smegmatis WT and 14.3 ± 0.07 nM (≈ 9.37 ng/mL) in experiment [5]. For the same compound, the “Inhibition of ATPase activity” value in experiment [3] (100 μM) is recorded as 36%; in experiment [3] (250 μM), 40%.
